Patent US8647828B2, “Intracellular targeting of molecules via syndecan-4” (Szilak Laboratories Bioinformatics & Molecule-Design Ltd., priority 2007, dated 2014)
Like-named read-outs stand apart in the source and are kept apart here.

System: nucleus of the cell
Type: cell-based
Details: peptide fused to GFP reporter

## MYRMKKKDEGSYDL (MYRMKKKDEGSYDLGKKPIYKKAPTNEFYA; from the cytoplasmic domain of syndecan-4 Ser11 of the sequence equals position Ser179 of the full length protein) [SEQ ID NO: 1]
  localization of GFP reporter chimera in the cell: homogenously dispersed in the cells

## SEQ ID NO: 2 (MYRMKKKDEGEYDLGKKPIYKKAPTNEFYA; from the cytoplasmic domain of syndecan-4 position Ser179 mutated into Glu)
  localization of GFP reporter chimera in the cell: accumulation of the reporter was detected in the nuclei
Listed as GFP-Ser179Glu mutant chimera
  localization of GFP reporter chimera in the cell: nuclear accumulation
